Experimental findings from patent US11447505B1, “Pyrrolo[2,3-b]pyridine compounds and their use in the treatment of cancer” (priority 2017, dated 2022) are described below.

One test concerns the target ROCK2 (Homo sapiens (Human), UniProt O75116). The test is described as follows: ROCK2 kinase assay (IMAP fluorescence polarization). The settings on record: 1 μM ATP; read-out: ROCK2 Average Ki. Type of test: biochemical.
In test [1] the target is T1, ROCK1 (Homo sapiens (Human), UniProt Q13464). The test is described as follows: biochemical.
The target in test [2] is T2, MRCKβ (Homo sapiens (Human), UniProt Q9Y5S2). The test is described as follows: MRCKβ kinase assay (IMAP fluorescence polarization). The settings on record: 1 μM ATP; read-out: MRCK-B Average Ki. It is filed as biochemical. From the text: (§1) MRCKα, MRCKβ, ROCK1 and ROCK2 Kinase Assays
In test [3] the target is T2, MRCKβ. As to the kind of experiment: MRCKβ cellular assay (pMLC T18/S19 immunoblot, MDA-MB-231 cells with doxycycline inducible kinase domain). Type of test: cell-based. The settings on record: MDA-MB-231 cells, doxycycline inducible kinase domain, 60 minutes, pMLC (T18/S19); read-out: Cellular assay - MRCK-b inhibition MEAN. On the procedure: MRCKβ, ROCK1 and ROCK2 Cellular Assays
MDA-MB-231 cells expressing doxycycline inducible ROCK1, ROCK2 or MRCKβ kinase domains were plated at 1.1×10^5 cells per well of a 12 well plate. After 24 hours, cells were treated with 1 μg/ml doxycycline for 18 hours to induce kinase domain expression and then tested over a suitable concentration range with compounds of the invention for 60 minutes. Cells were then washed with PBS and lysed with Tris-SDS lysis Buffer (50 mM Tris-HCl pH7.4, 0.5% (v/v) SDS, 1×PhosStop Inhibitors (04 906 837 001; Roche) and 1×Complete Protease Inhibitors (04 693 124 001; Roche)). Whole cell lysates were clarified by passing through QIAshredder spin columns, separated by SDS-PAGE, and quantitative immunoblotting performed using a LI-COR Odyssey IR scanner to determine pMLC (T18/S19) and α-Tubulin levels.

Another test addresses MRCKα (Homo sapiens (Human), UniProt Q5VT25). The test is described as follows: MRCKα kinase assay (IMAP fluorescence polarization). It is filed as biochemical. The settings on record: 1 μM ATP; read-out: MRCK-a Average Ki.
Text: as §1

For test [4], the target named is T1, ROCK1. The settings on record: read-out: ROCK1 Average Ki; 1 μM ATP.

The structures appear in SMILES notation. pIC50, pKi: −log10 of the molar value. Where two headings read alike, the source gives them in different places.

ROCK2, sequence (O75116 whole entry): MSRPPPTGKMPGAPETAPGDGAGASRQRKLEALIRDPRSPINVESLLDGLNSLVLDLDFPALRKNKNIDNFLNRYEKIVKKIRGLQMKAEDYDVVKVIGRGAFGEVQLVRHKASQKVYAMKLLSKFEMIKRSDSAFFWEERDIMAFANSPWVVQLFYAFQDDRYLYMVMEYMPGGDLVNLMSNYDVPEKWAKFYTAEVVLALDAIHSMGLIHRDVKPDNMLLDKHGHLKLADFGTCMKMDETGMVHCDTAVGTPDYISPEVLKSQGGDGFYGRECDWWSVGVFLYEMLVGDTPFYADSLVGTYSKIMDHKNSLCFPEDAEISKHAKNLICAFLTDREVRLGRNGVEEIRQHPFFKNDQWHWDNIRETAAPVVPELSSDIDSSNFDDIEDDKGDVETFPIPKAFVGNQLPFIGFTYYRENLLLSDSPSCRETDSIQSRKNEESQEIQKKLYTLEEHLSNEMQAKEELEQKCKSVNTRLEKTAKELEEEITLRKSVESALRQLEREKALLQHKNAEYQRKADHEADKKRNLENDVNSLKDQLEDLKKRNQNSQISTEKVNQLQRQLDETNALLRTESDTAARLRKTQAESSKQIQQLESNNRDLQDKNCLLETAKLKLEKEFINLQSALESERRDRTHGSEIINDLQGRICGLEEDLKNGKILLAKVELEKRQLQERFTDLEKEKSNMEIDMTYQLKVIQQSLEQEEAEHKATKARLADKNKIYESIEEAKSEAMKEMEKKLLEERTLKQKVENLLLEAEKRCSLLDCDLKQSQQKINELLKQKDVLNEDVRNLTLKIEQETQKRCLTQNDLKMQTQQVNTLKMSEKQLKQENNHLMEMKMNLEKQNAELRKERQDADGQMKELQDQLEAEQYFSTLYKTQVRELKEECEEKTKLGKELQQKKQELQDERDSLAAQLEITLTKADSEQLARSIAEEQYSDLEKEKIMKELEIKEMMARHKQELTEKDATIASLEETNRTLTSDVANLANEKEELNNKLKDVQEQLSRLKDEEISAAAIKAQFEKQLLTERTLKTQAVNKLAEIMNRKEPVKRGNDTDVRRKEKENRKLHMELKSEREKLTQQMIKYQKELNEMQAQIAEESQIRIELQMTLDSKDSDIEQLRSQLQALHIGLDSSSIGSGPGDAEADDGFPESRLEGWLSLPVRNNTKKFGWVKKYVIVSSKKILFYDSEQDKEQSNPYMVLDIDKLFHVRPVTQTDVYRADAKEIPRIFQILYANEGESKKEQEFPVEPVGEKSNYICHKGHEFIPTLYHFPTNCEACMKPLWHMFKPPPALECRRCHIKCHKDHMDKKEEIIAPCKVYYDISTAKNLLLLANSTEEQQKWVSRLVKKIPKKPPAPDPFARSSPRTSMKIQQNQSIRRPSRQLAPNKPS
T1 sequence (Q13464 2-1354 limits assumed): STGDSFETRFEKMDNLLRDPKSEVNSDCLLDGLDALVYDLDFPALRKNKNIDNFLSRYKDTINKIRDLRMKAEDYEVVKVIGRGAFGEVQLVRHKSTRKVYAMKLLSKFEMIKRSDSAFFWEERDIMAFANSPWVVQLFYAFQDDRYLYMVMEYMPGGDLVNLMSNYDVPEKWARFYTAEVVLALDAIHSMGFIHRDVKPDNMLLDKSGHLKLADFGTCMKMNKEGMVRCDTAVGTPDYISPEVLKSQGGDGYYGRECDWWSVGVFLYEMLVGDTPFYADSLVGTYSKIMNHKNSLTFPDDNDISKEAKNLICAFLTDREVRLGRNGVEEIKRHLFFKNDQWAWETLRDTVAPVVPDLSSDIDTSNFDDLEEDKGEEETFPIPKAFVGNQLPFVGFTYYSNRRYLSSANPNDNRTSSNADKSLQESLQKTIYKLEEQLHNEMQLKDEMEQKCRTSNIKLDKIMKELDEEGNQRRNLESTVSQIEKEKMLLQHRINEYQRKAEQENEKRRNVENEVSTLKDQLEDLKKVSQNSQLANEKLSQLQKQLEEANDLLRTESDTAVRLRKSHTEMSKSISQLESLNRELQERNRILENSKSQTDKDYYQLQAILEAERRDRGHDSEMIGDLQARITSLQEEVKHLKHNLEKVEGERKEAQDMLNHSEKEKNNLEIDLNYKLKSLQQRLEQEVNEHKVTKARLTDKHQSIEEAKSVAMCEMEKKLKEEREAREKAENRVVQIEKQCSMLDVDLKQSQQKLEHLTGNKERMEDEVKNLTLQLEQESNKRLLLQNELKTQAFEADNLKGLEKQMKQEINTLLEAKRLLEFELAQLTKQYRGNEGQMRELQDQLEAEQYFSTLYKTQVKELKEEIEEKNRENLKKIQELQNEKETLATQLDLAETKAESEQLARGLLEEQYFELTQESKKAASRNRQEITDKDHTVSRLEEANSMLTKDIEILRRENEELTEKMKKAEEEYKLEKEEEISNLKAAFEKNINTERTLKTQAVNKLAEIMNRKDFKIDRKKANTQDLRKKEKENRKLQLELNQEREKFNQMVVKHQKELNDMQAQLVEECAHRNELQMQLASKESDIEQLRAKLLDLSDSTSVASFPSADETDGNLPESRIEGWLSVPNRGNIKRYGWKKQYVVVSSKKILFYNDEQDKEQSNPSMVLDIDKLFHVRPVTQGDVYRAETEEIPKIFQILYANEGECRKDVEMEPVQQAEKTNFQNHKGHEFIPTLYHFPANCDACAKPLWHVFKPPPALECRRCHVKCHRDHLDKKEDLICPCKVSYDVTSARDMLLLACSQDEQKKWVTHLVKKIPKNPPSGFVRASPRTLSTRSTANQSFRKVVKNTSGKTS
MRCKα, sequence (Q5VT25 whole entry): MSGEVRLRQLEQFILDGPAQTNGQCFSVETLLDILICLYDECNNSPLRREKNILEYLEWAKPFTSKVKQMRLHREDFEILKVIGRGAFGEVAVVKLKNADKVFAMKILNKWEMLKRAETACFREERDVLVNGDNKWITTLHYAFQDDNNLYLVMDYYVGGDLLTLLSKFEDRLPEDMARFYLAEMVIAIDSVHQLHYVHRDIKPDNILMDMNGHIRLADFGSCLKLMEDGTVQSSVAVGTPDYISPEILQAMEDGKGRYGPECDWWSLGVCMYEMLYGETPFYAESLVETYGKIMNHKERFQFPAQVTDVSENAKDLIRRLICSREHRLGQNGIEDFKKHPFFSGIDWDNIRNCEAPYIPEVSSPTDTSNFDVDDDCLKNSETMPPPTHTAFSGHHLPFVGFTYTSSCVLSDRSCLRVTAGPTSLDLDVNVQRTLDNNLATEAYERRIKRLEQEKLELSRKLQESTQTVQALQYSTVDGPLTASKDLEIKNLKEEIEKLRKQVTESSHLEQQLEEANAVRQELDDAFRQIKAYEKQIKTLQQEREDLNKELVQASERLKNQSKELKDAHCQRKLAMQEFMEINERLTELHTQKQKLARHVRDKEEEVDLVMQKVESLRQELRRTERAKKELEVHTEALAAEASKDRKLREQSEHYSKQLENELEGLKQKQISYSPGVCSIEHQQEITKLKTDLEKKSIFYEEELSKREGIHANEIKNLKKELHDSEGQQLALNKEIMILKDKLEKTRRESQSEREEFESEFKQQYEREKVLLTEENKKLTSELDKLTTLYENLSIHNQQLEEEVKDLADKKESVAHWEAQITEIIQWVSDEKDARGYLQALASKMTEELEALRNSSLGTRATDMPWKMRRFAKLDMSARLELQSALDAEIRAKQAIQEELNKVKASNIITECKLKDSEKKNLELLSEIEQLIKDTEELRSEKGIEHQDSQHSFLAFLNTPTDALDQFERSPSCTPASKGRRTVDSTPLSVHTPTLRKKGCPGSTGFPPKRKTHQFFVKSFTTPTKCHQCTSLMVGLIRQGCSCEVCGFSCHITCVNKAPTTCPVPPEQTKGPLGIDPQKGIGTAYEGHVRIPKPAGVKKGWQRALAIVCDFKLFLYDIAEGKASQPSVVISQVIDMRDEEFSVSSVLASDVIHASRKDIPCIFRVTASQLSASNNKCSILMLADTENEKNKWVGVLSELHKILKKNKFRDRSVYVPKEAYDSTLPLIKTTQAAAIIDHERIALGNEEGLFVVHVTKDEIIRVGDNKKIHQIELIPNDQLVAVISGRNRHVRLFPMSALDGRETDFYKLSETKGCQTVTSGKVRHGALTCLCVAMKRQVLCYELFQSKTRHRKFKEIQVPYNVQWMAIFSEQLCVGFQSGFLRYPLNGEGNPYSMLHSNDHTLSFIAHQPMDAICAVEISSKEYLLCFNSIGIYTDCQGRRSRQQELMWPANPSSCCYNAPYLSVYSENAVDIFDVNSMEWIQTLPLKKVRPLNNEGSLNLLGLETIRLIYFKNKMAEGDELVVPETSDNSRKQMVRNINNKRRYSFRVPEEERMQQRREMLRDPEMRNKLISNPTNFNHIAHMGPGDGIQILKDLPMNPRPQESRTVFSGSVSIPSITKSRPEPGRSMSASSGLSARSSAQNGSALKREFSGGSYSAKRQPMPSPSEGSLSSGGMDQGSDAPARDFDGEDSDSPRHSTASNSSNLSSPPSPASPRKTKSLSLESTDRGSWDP

For the molecule `Nc1cncc(-c2c[nH]c3nccc(N4CCCCC4)c23)c1` [Example E6, 5-[4-(1-piperidyl)-1H-pyrrolo[2,3-b]pyridin-3-yl]pyridin-3-amine], the pKi was 8.72 on ROCK2, 8.46 on ROCK1 [1] and 8.95 at MRCKβ [2].
On the same counts, the results for `N#Cc1c[nH]c2nccc(N3CCC[C@H]3CO)c12` [Example E38, 4-[(2S)-2-(hydroxymethyl)pyrrolidin-1-yl]-1H-pyrrolo[2,3-b]pyridine-3-carbonitrile] are 7.90, 7.78 and 8.29.
Turning to `N#Cc1c[nH]c2nccc(N3CC[C@@H](N)C3)c12` [Example E197, 4-[(3R)-3-aminopyrrolidin-1-yl]-1H-pyrrolo[2,3-b]pyridine-3-carbonitrile], the pKi on ROCK2 is 8.15; on ROCK1 [1], 7.70; on MRCKβ [2], 8.05.
In the case of `CC1(N)CCCN(c2ccnc3[nH]cc(-c4cncnc4)c23)C1` (centres unmarked) [Example E178, 3-methyl-1-(3-pyrimidin-5-yl-1H-pyrrolo[2,3-b]pyridin-4-yl)piperidin-3-amine], the pKi is 6.93 on ROCK2, 9.29 at MRCKα, 6.37 on ROCK1 [4] and 9.74 at MRCKβ [2]. Moreover, the pIC50 at MRCKβ [3] is 6.21.
For `OC1CCN([C@H]2CCCN(c3ccnc4[nH]cc(-c5cncnc5)c34)C2)CC1` [Example E92, 1-[(3S)-1-(3-pyrimidin-5-yl-1H-pyrrolo[2,3-b]pyridin-4-yl)-3-piperidyl]piperidin-4-ol], the pKi on ROCK2 was 5.82; at ROCK1 [1], 5.30; on MRCKβ [2], 8.30.
On to `N#Cc1c[nH]c2nccc(N3CCC[C@@H]3CO)c12` [Example E39, 4-[(2R)-2-(hydroxymethyl)pyrrolidin-1-yl]-1H-pyrrolo[2,3-b]pyridine-3-carbonitrile], for which the pKi is 7.06 on ROCK2, 6.99 at ROCK1 [1] and 7.53 at MRCKβ [2].
With `CN(C)C1CCCN(c2ccnc3[nH]cc(-c4cncnc4)c23)C1` (centres unmarked) [Example E60, N,N-dimethyl-1-(3-pyrimidin-5-yl-1H-pyrrolo[2,3-b]pyridin-4-yl)piperidin-3-amine], the results for the pKi on ROCK2, at ROCK1 [1] and at MRCKβ [2] were 6.70, 6.39 and 7.86, respectively.
Take `c1cc(-c2c[nH]c3nccc(N4CCC[C@H](NC5CC5)C4)c23)ncn1` [Example E41, (3S)—N-cyclopropyl-1-(3-pyrimidin-4-yl-1H-pyrrolo[2,3-b]pyridin-4-yl)piperidin-3-amine]: the pKi at ROCK1 [1] was 7.46; on MRCKβ [2] it was 9.69.
As to `N#Cc1c[nH]c2nccc(N3CCC4(CCCCN4)C3)c12` (centres unmarked) [Example E184, 4-(2,6-diazaspiro[4.5]decan-2-yl)-1H-pyrrolo[2,3-b]pyridine-3-carbonitrile], at ROCK1 [1], the pKi is 7.66.
For the molecule `c1ncc(-c2c[nH]c3nccc(OC[C@H]4CCCNC4)c23)cn1` [Example E218, 4-[[(3S)-3-piperidyl]methoxy]-3-pyrimidin-5-yl-1H-pyrrolo[2,3-b]pyridine], the negative logarithm of the Ki (pKi) is 7.75 on ROCK2, 9.72 at MRCKα, 7.73 on ROCK1 [1] and 8.94 at MRCKβ [2].
As for `c1ncc(-c2c[nH]c3nccc(OC[C@@H]4CCCNC4)c23)cn1` [Example E214, 4-[[(3R)-3-piperidyl]methoxy]-3-pyrimidin-5-yl-1H-pyrrolo[2,3-b]pyridine], the results for the pKi on ROCK2, on ROCK1 [1] and at MRCKβ [2] were 7.49, 7.38 and 8.97, respectively.
With `CN[C@H]1CCCN(c2ccnc3[nH]cc(-c4cc[nH]n4)c23)C1` [Example E83, (3S)-N-methyl-1-[3-(1H-pyrazol-3-yl)-1H-pyrrolo[2,3-b]pyridin-4-yl]piperidin-3-amine], the pKi on ROCK2 was 6.71; on MRCKα it was 9.32; at ROCK1 [1] it was 5.95; at MRCKβ [2] it was 8.73.
On to `O[C@@H]1CCCN(c2ccnc3[nH]cc(-c4cncnc4)c23)C1` [Example E100, (3R)-1-(3-pyrimidin-5-yl-1H-pyrrolo[2,3-b]pyridin-4-yl)piperidin-3-ol], for which the results for the pKi at ROCK2, on ROCK1 [1] and on MRCKβ [2] were 6.56, 6.30 and 7.15, respectively.
With `CN1CCC[C@@H](COc2ccnc3[nH]cc(-c4cncnc4)c23)C1` [Example E224, 4-[[(3R)-1-methyl-3-piperidyl]methoxy]-3-pyrimidin-5-yl-1H-pyrrolo[2,3-b]pyridine], the pKi at ROCK2 was 6.99; at MRCKα it was 8.72; at ROCK1 [1] it was 6.82; on MRCKβ [2], 8.48.
In the case of `Brc1cnc2[nH]cc(-c3cc[nH]n3)c2c1N1CCCCC1` [Example E70, 5-bromo-4-(1-piperidyl)-3-(1H-pyrazol-3-yl)-1H-pyrrolo[2,3-b]pyridine], the pKi is 6.56 at ROCK2, 5.89 at ROCK1 [1] and 6.46 on MRCKβ [2].
On ROCK1 [1], `N#Cc1c[nH]c2nccc(N3CCC[C@]4(CCCCN4)C3)c12` [Example E186, 4-[(6R)-1,8-diazaspiro[5.5]undecan-8-yl]-1H-pyrrolo[2,3-b]pyridine-3-carbonitrile] showed a pKi of 6.46.
`CN1CCCN(C(=O)[C@@H]2CCCN2c2ccnc3[nH]cc(C#N)c23)CC1` [Example E201, 4-[(2S)-2-(4-methyl-1,4-diazepane-1-carbonyl)pyrrolidin-1-yl]-1H-pyrrolo[2,3-b]pyridine-3-carbonitrile]: the negative logarithm of the Ki (pKi) at ROCK2 was 6.15; at ROCK1 [1] it was 5.98; on MRCKβ [2], 6.83.
For the molecule `c1cc(-c2c[nH]c3nccc(N4CCCC5(CCCCN5)C4)c23)ncn1` (centres unmarked) [Example E168, 8-(3-pyrimidin-4-yl-1H-pyrrolo[2,3-b]pyridin-4-yl)-1,8-diazaspiro[5.5]undecane], the results for the pKi at ROCK2, at ROCK1 [4] and at MRCKβ [2] were 7.51, 7.05 and 10.19, respectively. On MRCKβ [3], the pIC50 was over 7.52.
Turning to `c1cc(N2CCC[C@]3(CCCCN3)C2)c2c(-c3ncsn3)c[nH]c2n1` [Example E115, 3-[4-[(6R)-1,8-diazaspiro[5.5]undecan-8-yl]-1H-pyrrolo[2,3-b]pyridin-3-yl]-1,2,4-thiadiazole], the pKi was at most 4.00 at ROCK1 [1] and 8.61 at MRCKβ [2].
Take `c1ncc(-c2c[nH]c3nccc(N[C@H]4CCCNC4)c23)cn1` [Example E87, N-[(3S)-3-piperidyl]-3-pyrimidin-5-yl-1H-pyrrolo[2,3-b]pyridin-4-amine]: the pKi on ROCK2 is 6.49; at MRCKα, 7.47; on ROCK1 [1], 4.30; on MRCKβ [2], 7.27.
On the same counts, the results for `OC1CCN([C@H]2CCCN(c3ccnc4[nH]cc(-c5cncnc5)c34)C2)C1` (stereo partly drawn) [Example E93, [(3S)-1-(3-pyrimidin-5-yl-1H-pyrrolo[2,3-b]pyridin-4-yl)-3-piperidyl]pyrrolidin-3-ol] are 6.08, 7.94, 5.62 and 8.32.
With `N#Cc1c[nH]c2nccc(N3CCCCC3)c12` [Example E35, 4-(1-piperidyl)-1H-pyrrolo[2,3-b]pyridine-3-carbonitrile], the pKi at ROCK2 is 7.80; at MRCKα, 7.85; at ROCK1 [4], 7.24; at MRCKβ [2], 8.05.
On to `CN1CC[C@@H]2CCN(c3ccnc4[nH]cc(-c5cncnc5)c34)C[C@@H]21` [Example E180, 4-[(3aR,7aR)-1-methyl-3,3a,4,5,7,7a-hexahydro-2H-pyrrolo[2,3-c]pyridin-6-yl]-3-pyrimidin-5-yl-1H-pyrrolo[2,3-b]pyridine], for which the negative-log Ki (pKi) at ROCK2 is 5.80; on ROCK1 [1], 5.47; at MRCKβ [2], 6.91.
The like results for `CN1CC[C@H]2CN(c3ccnc4[nH]cc(-c5cncnc5)c34)CC[C@H]21` [Example E200, 4-[(3aS,7aR)-1-methyl-3,3a,4,6,7,7a-hexahydro-2H-pyrrolo[3,2-c]pyridin-5-yl]-3-pyrimidin-5-yl-1H-pyrrolo[2,3-b]pyridine] were, in that order, 6.84, 6.71 and 8.51.
`Cn1cc(-c2c[nH]c3nccc(N4CCCC5(CCCCN5)C4)c23)cn1` (centres unmarked) [Example E188, 8-[3-(1-methylpyrazol-4-yl)-1H-pyrrolo[2,3-b]pyridin-4-yl]-1,8-diazaspiro[5.5]undecane]: the pKi at ROCK2 is 7.54; at MRCKα, 9.22; at ROCK1 [4] it was 7.03; on MRCKβ [2] it was 8.82.
`N#Cc1c[nH]c2nccc(N3CCC[C@H]3COc3ccccc3)c12` [Example E40, 4-[(2S)-2-(phenoxymethyl)pyrrolidin-1-yl]-1H-pyrrolo[2,3-b]pyridine-3-carbonitrile]: the pKi is 5.97 at ROCK2, 5.67 at ROCK1 [1] and 6.61 on MRCKβ [2].
With `C[C@@H]1CCCN1c1ccnc2[nH]cc(C#N)c12` [Example E110, 4-[(2R)-2-methylpyrrolidin-1-yl]-1H-pyrrolo[2,3-b]pyridine-3-carbonitrile], the pKi at ROCK2 was 8.61; at MRCKα, 8.34; at ROCK1 [4], 8.56; at MRCKβ [2], 8.84.
